From ChEMBL document CHEMBL4602691, “Selective DYRK1A Inhibitor for the Treatment of Type 1 Diabetes: Discovery of 6-Azaindole Derivative GNF2133” (J Med Chem, 2020)

Key:
[1] = Metabolic stability in human liver microsomes assessed as intrinsic clearance at 1 uM incubated for 30 mins by LC-MS/MS analysis; format: ADME, Microsome; conditions: 0.5 h
[2] = Metabolic stability in rat liver microsomes assessed as intrinsic clearance at 1 uM incubated for 30 mins by LC-MS/MS analysis; format: ADME, Microsome; conditions: 0.5 h
[3] = Metabolic stability in mouse liver microsomes assessed as intrinsic clearance at 1 uM incubated for 30 mins by LC-MS/MS analysis; format: ADME, Microsome; conditions: 0.5 h
[4] = Volume of distribution at steady state in CD-1 mouse at 2 mg/kg, iv; format: ADME, organism-based; conditions: in vivo, read-out: Vdss
[5] = AUC in CD-1 mouse pancreas at 30 mg/kg, po; format: ADME, organism-based
[6] = Oral bioavailability in CD-1 mouse at 30 mg/kg; format: ADME, organism-based; conditions: in vivo
[7] = Clast in CD-1 mouse at 30 mg/kg, po; format: ADME, organism-based; conditions: in vivo, read-out: Clast
[8] = Clast in CD-1 mouse at 2 mg/kg, iv; format: ADME, organism-based; conditions: in vivo, read-out: Clast
[9] = Half life in CD-1 mouse at 30 mg/kg, po; format: ADME, organism-based; conditions: in vivo
[10] = Tmax in CD-1 mouse pancreas at 30 mg/kg, po; format: ADME, organism-based
[11] = Tmax in CD-1 mouse at 30 mg/kg, po; format: ADME, organism-based; conditions: in vivo
[12] = Cmax in CD-1 mouse at 30 mg/kg, po; format: ADME, organism-based; set-up: dose 30 mg/kg, route oral; conditions: in vivo
[13] = Clearance in CD-1 mouse at 2 mg/kg, iv; format: ADME, organism-based; conditions: in vivo
[14] = Cmax in CD-1 mouse pancreas at 30 mg/kg, po; format: ADME, organism-based; set-up: dose 30 mg/kg, route oral
[15] = AUC in CD-1 mouse at 30 mg/kg, po; format: ADME, organism-based; conditions: in vivo
[16] = AUC in CD-1 mouse at 2 mg/kg, iv; format: ADME, organism-based; conditions: in vivo
[17] = Clast in CD-1 mouse pancreas at 30 mg/kg, po; format: ADME, organism-based; conditions: in vivo, read-out: Clast
[18] = Half life in CD-1 mouse pancreas at 30 mg/kg, po; format: ADME, organism-based
[19] = Cmax in CD-1 mouse at 2 mg/kg, iv; format: ADME, organism-based; set-up: dose 2 mg/kg, route intravenous; conditions: in vivo
[20] = Half life in CD-1 mouse at 2 mg/kg, iv; format: ADME, organism-based; conditions: in vivo
[21] = Tmax in CD-1 mouse at 2 mg/kg, iv; format: ADME, organism-based; conditions: in vivo
[22] = Aqueous solubility of compound at pH 6.8; format: physicochemical; conditions: aqueous medium

Compound	CLH [1] [%]	CLH [2] [%]	CLH [3] [%]	further results
CC1(C)CN(C(=O)Nc2cc(-c3cn(C4CCOCC4)c4cnccc34)ccn2)C1	43	45	43	–
CC(C)Cn1cc(-c2ccncc2)c2ccncc21	83	79	95	–
CCN1CCN(C(=O)Nc2cc(-c3cn(C4CCOCC4)c4cnccc34)ccn2)CC1.Cl	–	–	–	Vd [4]: 11 L/kg; AUC [5]: 144 µM·h; bioavailability [6]: 22.3%; concentration [7]: 19 nM; concentration [8]: 36.6 nM; half-life [9]: 3.4 h; Tmax [10]: 3 h; Tmax [11]: 3 h; Cmax [12]: 1680 nM; clearance [13]: 23.5 mL/min/kg; Cmax [14]: 13300 nM; AUC [15]: 11 µM·h; AUC [16]: 3.27 µM·h; concentration [17]: 1320 nM; half-life [18]: 6.6 h; Cmax [19]: 1980 nM; half-life [20]: 6.6 h; Tmax [21]: 1.8 min
c1ccc(Cn2cc(-c3ccncc3)c3ccncc32)cc1	83	67	90	–
c1cc(-c2cn(CC3CC3)c3cnccc23)ccn1	87	87	97	–
O=C(Nc1cc(-c2cn(-c3ccccc3)c3cnccc23)ccn1)C1CC1	44	50	76	–
CCN1CCN(C(=O)Nc2cc(-c3cn(C4CCOCC4)c4cnccc34)ccn2)CC1	28	18	30	solubility [22]: > 175 µM
O=C(Nc1cc(-c2cn(-c3ccccc3)c3cnccc23)ccn1)NC1CC1	21	60	70	–
Nc1cc(-c2cn(-c3ccccc3)c3cnccc23)ccn1	87	86	94	–
O=C(Nc1cc(-c2cn(C3CCOCC3)c3cnccc23)ccn1)NC1CC1	–	42	71	–
c1ccc(-n2cc(-c3ccncc3)c3ccncc32)cc1	92	90	97	–
O=C(Nc1cc(-c2cn(C3CCOCC3)c3cnccc23)ccn1)N1CCOCC1	21	25	23	–
C[C@@H]1CN(C(=O)Nc2cc(-c3cn(C4CCOCC4)c4cnccc34)ccn2)C[C@H](C)O1	–	18	23	–
c1cc(-c2cn(C3CCOCC3)c3cnccc23)ccn1	–	83	91	–
CC1(Cn2cc(-c3ccncc3)c3ccncc32)COC1	39	69	90	–
C[C@@H]1CN(C(=O)Nc2cc(-c3cn([C@H]4CC[C@@](C)(O)CC4)c4cnccc34)ccn2)C[C@H](C)O1	21	18	23	solubility [22]: > 175 µM
